The results in this text go back to US8367410B2, “Application of electrical stimulation for functional tissue engineering in vitro and in vivo” (Massachusetts Institute of Technology, priority 2003, dated 2013).

In assay [1] the test system is engineered cardiac constructs cultured in mixed dishes. Nature of the assay: Contractile function (ET, MCR) of dish-grown constructs, palmitoleic acid treatment and washout. In kind it is cell-based, rat. How it is done: (§1) Contractile function. The contractile function of engineered cardiac constructs was evaluated by monitoring contractile activity upon electrical stimulation at ×10 magnification using a microscope (Nikon Diaphot). Each construct was placed in a 100-mm petri dish containing […] Tyrode solution (140 mM NaCl, 5.4 mM KC1, 0.33 mM NaH2PO4, 1.8 mM CaCl2, 1 mM MgCl2, 5 mM HEPES, and 5.5 MM D-glucose; pH 7.4) between two custom-made gold electrodes connected to a cardiac stimulator (Nihon Kohden). The temperature was maintained at 37° C. using a heating tape (VWR) attached to the bottom of the petri dish.
(§2) The maximum capture rate (MCR) was defined as the maximum pacing frequency (in beats/min) for a synchronous stimulus response of the constructs. To measure MCR, the stimulation frequency was increased (from 60 to 600 beats/min, in 20 beats/min increments) at a constant voltage (equal to either 150% or 200% of the ET). The construct response was measured at each frequency, and the frequency was increased until the contractions became asynchronous, irregular, or completely ceased. The maximum frequency for synchronous contractions was recorded as the MCR. The value of ET, which was different from one construct to another due to the differences in their structures, served as the baseline voltage for the measurement of MCR.
(§3) Constructs cultured in perfused cartridges were compared with constructs cultured in mixed dishes and to neonatal rat ventricles (full thickness slices obtained by bisecting the left ventricle parallel to the base apex line). The effect of palmitoleic acid (PA), a gap junction blocker (4), was investigated by incubating constructs or slices of native ventricles in PA (8.3 mM in Tyrode solution) for 20 min at 37° C. and then determining ET and MCR as described above. To test whether the effect of PA was reversible, constructs were transferred to Tyrode solution and retested after an additional 20 min at 37° C.

Assay [2] deals with neonatal rat ventricles. Nature of the assay: Contractile function (ET, MCR) of neonatal rat ventricle slices, palmitoleic acid treatment and washout. In kind it is cell-based. As to conditions: mean +/- SE. How it is done: as §1, §2, §3
The test system of assay [3] is engineered cardiac constructs. Nature of the assay: Contractile activity of constructs during incubation with palmitoleic acid. In kind it is cell-based, rat. How it is done: as §1, §3
In assay [4] the test system is engineered cardiac constructs cultured in perfused cartridges. The assay can be described thus: Contractile function (ET, MCR) of perfused constructs, palmitoleic acid treatment and washout. In kind it is cell-based, rat. The settings on record: mean +/- SE. How it is done: as §1, §2, §3
Setting [5] is: dish-grown construct, after washout of PA, mean +/- SE.
Setting [6] is: perfused construct, after washout of PA.

Structures are written as SMILES. Marks after values point to notes of the source that are not given here. Where only a bound is given, the exact number is not on record here.

As to `CCCCCC/C=C\CCCCCCCC(=O)O` [PA, palmitoleic acid], the “ET (excitation threshold), After PA” value in assay [1] (dish-grown construct (7 days at 25 rpm), after washout of PA (8.3 mM, 20 min), 60 beats/min, mean +/- SE) is reported as 4.4 +/− 0.1^ab V; in assay [2] (after washout of PA (8.3 mM, 20 min, 37° C.), stimulation 60 beats/min), 1.5 +/− 0.1 V; in assay [4] (perfused construct (7 days at 500 μm/s), after washout of PA (8.3 mM, 20 min), 60 beats/min) it was 3.5 +/− 0.1^a V. In addition, the “MCR at 150% ET, After PA” value is reported as 378 +/− 31^c beats/min in assay [1] (setting [5]), 465 +/− 15 beats/min in assay [2] (after washout of PA) and 415 +/− 35 beats/min in assay [4] (setting [6]). Also, the figures for the “MCR at 200% ET, After PA” value in assay [1] (setting [5]), in assay [2] (after washout of PA) and in assay [4] (setting [6]) were 380 +/− 31^c beats/min, 427 +/− 58 beats/min and 435 +/− 45 beats/min, respectively. In assay [1] (dish-grown constructs), the “Recovery of MCR after PA washout” value is “failed to recover their baseline levels”. In assay [3] (after transfer to Tyrode solution, 20 min at 37° C.), the “Contractile activity after the washout of PA” value is reported as “Contractile activity resumed”. In addition, the “Voltage at which synchronous construct contractions could not be induced” value in assay [3] (upon incubation with PA (8.3 mM in Tyrode solution)) is listed as over 9.9 V.
